According to patent US20110195845A1, “Constructs for Expressing Herbicide Tolerance Genes, Related Plants, and Related Trait Combinations” (Dow AgroSciences LLC, priority 2008, published 2011):

Legend:
[1] = system: NT-1 tobacco suspension cells treated with DSM-2 (v2) (pDAB3778); experiment: NT-1 tobacco cell transformation, selection on bialaphos or glufosinate ammonium; type: cell-based; conditions: for Transformation Frequency on 10 mg/L Bialaphos following PCR Verification: % of selection plates with at least one PCR positive isolate
Description: (§1) Four days prior to transformation, a 1 week old NT-1 tobacco suspension, which was being subcultured every 7 days, was subcultured to fresh medium by adding 2 ml of the NT-1 culture or 1 ml of packed cells into 40 ml NT-1 B media. The subcultured suspension was maintained in the dark at 25±1° C. on a shaker at 125 rpm.
(§2) A 50% glycerol stock of Agrobacterium tumefaciens [strain LBA4404] harboring a binary vector of interest was used to initiate a liquid overnight culture by adding 20, 100, or 500 μl to 30 ml YEP liquid (10 g/L yeast extract, 10 g/L Peptone, 5 g/L NaCl, 0-10 g/L Sucrose) containing 50-100 mg/L spectinomycin. The bacterial culture was incubated in the dark at 28° C. in an incubator shaker at 150-250 rpm until the OD600 was 1.5+0.2. This took approximately 18-20 hrs.
(§3) For each vector tested, 20-70 mL of 4-day old suspension cells were transferred into a sterile vessel, to which 500-1750 μl of Agrobacterium suspension at the proper OD was added. To ensure a uniform mixture was achieved, the cells were pipetted up and down 5 times with a 10 ml wide-bore pipet. The uniform suspension was then drawn up into a 25 ml barrel of a repeat pipetter and 250 μl of the suspension was dispensed per well into 24-well plates, continuing until the suspension was exhausted. The well plates were wrapped in parafilm and cultured in the dark at 25±1° C. without shaking for a 3 day co-cultivation.
Following the co-cultivation, all excess liquid was removed from the individual wells with a 1 mL pipet tip, and remaining cells were resuspended in 1 ml NTC liquid (NT-1 B medium containing 500 mg/L carbenicillin, added after autoclaving). The contents of an individual well were dispersed across the entire surface of 100×25 mm selection plates using disposable transfer pipets. Selection media consisted of NTC media solidified with 8 g/l TC agar supplemented with 7.5 to 15 mg/L bialaphos or technical grade glufosinate ammonium, added after autoclaving. All selection plates, left unwrapped, were maintained in the dark at 28° C.
Putative transformants appeared as small clusters of callus on a background of dead, non-transformed cells. Calli were isolated approximately 2-6 weeks post-transformation. Each callus isolate was transferred to its own 60×20 mm plate containing the same selection medium and allowed to grow for approximately 2 weeks before being submitted for analysis.

[2] = system: NT-1 tobacco suspension cells treated with PAT (pDAB3779); experiment: NT-1 tobacco cell transformation, selection on bialaphos; type: cell-based; conditions: % of selection plates with at least one PCR positive isolate
Description: as §1, §2
as §3, with “The well plates were wrapped in parafilm and cultured in the dark at 25±1° C. without shaking for a 3 day co-cultivation.” left out

C[C@H](NC(=O)[C@H](C)NC(=O)[C@@H](N)CCP(C)(=O)O)C(=O)O [Bialaphos]
Transformation frequency (% of selection plates producing at least one callus) after coding region PCR ([1]; 7.5 mg/L selection agent): 38.9%
Transformation Frequency on 10 mg/L Bialaphos following PCR Verification [1]: 79%
Transformation Frequency on 10 mg/L Bialaphos following PCR Verification ([1]; listed as bialaphos): 79%
Transformation frequency (% of selection plates producing at least one callus) after coding region PCR ([1]; 10 mg/L selection agent): 44.4%
Transformation frequency (% of selection plates producing at least one callus) after coding region PCR ([1]; 12.5 mg/L selection agent): 38.9%
Transformation frequency (% of selection plates producing at least one callus) after coding region PCR ([1]; 15 mg/L selection agent): 22.2%
Transformation Frequency on 10 mg/L Bialaphos following PCR Verification [2]: 100%
Transformation Frequency on 10 mg/L Bialaphos following PCR Verification ([2]; listed as bialaphos): 100%
